Laboratory results taken from PubChem BioAssay (NCI).
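In this assay, cells in 96-well plates receive the compound at five concentrations for 48 hours. Endpoints are linearly interpolated between the surrounding concentrations. At the TGI there is no net growth.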

Columns and labels:
Test in all cases: inhibition of tumour cell growth, NCI panel, 48 h
786-0 renal = tested on: 786-0 renal
A498 renal = tested on: A498 renal
A549 NSCLC = tested on: A549 NSCLC
CAKI-1 renal = tested on: CAKI-1 renal
CCRF-CEM leukemia = tested on: CCRF-CEM leukemia
COLO 205 colon = tested on: COLO 205 colon
DLD-1 colon = tested on: DLD-1 colon
DMS 114 small cell lung = tested on: DMS 114 small cell lung
DMS 273 small cell lung = tested on: DMS 273 small cell lung
EKVX NSCLC = tested on: EKVX NSCLC
HCC-2998 colon = tested on: HCC-2998 colon
HCT-116 colon = tested on: HCT-116 colon
HCT-15 colon = tested on: HCT-15 colon
HL-60(TB) leukemia = tested on: HL-60(TB) leukemia
HOP-18 NSCLC = tested on: HOP-18 NSCLC
HOP-62 NSCLC = tested on: HOP-62 NSCLC
HOP-92 NSCLC = tested on: HOP-92 NSCLC
HT29 colon = tested on: HT29 colon
IGROV1 ovarian = tested on: IGROV1 ovarian
K-562 leukemia = tested on: K-562 leukemia
KM12 colon = tested on: KM12 colon
KM20L2 colon = tested on: KM20L2 colon
LOX IMVI melanoma = tested on: LOX IMVI melanoma
LXFL 529 NSCLC = tested on: LXFL 529 NSCLC
M14 melanoma = tested on: M14 melanoma
M19-MEL melanoma = tested on: M19-MEL melanoma
MALME-3M melanoma = tested on: MALME-3M melanoma
MOLT-4 leukemia = tested on: MOLT-4 leukemia
NCI-H226 lung = tested on: NCI-H226 lung
NCI-H23 lung = tested on: NCI-H23 lung
NCI-H460 lung = tested on: NCI-H460 lung
NCI-H522 lung = tested on: NCI-H522 lung
OVCAR-3 ovarian = tested on: OVCAR-3 ovarian
OVCAR-4 ovarian = tested on: OVCAR-4 ovarian
OVCAR-5 ovarian = tested on: OVCAR-5 ovarian
OVCAR-8 ovarian = tested on: OVCAR-8 ovarian
RPMI-8226 leukemia = tested on: RPMI-8226 leukemia
RXF 393 renal = tested on: RXF 393 renal
RXF-631 renal = tested on: RXF-631 renal
SF-268 CNS = tested on: SF-268 CNS
SF-295 CNS = tested on: SF-295 CNS
SF-539 CNS = tested on: SF-539 CNS
SK-MEL-2 melanoma = tested on: SK-MEL-2 melanoma
SK-MEL-5 melanoma = tested on: SK-MEL-5 melanoma
SK-OV-3 ovarian = tested on: SK-OV-3 ovarian
SN12C renal = tested on: SN12C renal
SNB-19 CNS = tested on: SNB-19 CNS
SNB-75 CNS = tested on: SNB-75 CNS
SNB-78 CNS = tested on: SNB-78 CNS
SW-620 colon = tested on: SW-620 colon
TK-10 renal = tested on: TK-10 renal
U251 CNS = tested on: U251 CNS
UACC-257 melanoma = tested on: UACC-257 melanoma
UACC-62 melanoma = tested on: UACC-62 melanoma
UO-31 renal = tested on: UO-31 renal
XF 498 CNS = tested on: XF 498 CNS

Measured: TGI

COC(=O)CCC1=NOC(CC2CC(CCC(=O)OC)=NO2)C1 (stereo unspecified)
> 100 µM: all assays above
